Results published in patent US11957699B2, “Composition comprising punicalagin for inhibiting PAR2 activity” (INDUSTRY-ACADEMIC COOPERATION FOUNDATION, YONSEI UNIVERSITY, priority 2018, dated 2024).

Legend:
[1] = tested on: C57BL6N mice with colitis induced by DSS; experiment: Colitis induced by dextran sodium sulfate (DSS) in mice; format: in vivo
Method: In 7-week-old C57BL6N mice, it was confirmed whether punicalagin has an effect of alleviating symptoms of colitis induced by dextran sodium sulfate (DSS).
Specifically, while dextran sodium sulfate (DSS), which is a colitis-causing substance, was diluted in water at 2.5% and was fed to the mice for 9 days, 1 mg/kg (n=4), 3 mg/kg (n=4), or 10 mg/kg (n=5) punicalagin was dissolved in physiological saline and intraperitoneally injected once every 48 hours, and the mice were weighed once a day. As control groups, a group which was fed only with 2.5% DSS (n=4), a group which was not fed with DSS and was not injected with punicalagin (n=3), and a group which was not fed with DSS and was injected with punicalagin at 10 mg/kg (n=3) were established, and weight changes, tissue damage, proinflammatory cytokine concentrations, and the like were measured.

[2] = tested on: NZB/W F1 mice with lupus nephritis; experiment: Lupus nephritis mouse model (NZB/W F1); format: in vivo
Method: With NZB/W F1 mice that were purchased from Central Lab. Animal Inc., the effect of punicalagin on symptoms of lupus nephritis was confirmed.
As control groups, there were two groups including a nephritis-induced group that was injected only with physiological saline and a nephritis-induced group that was injected with 7 mg/kg methylprednisolone (MPL), which is a standard therapeutic agent for lupus nephritis, and proteinuria was measured twice a week (panel A of FIG. 9).
Next, the protective effect of punicalagin on renal structural damage against lupus nephritis was histologically evaluated. To this end, kidneys were extracted and PAS stained in 30-week-old mice, and the degree of damage to glomeruli, ducts, and blood vessels was histologically quantified. In addition, when lupus nephritis was induced, the expressions of IgG and C3, which are autoantibodies mostly expressed in kidney tissues, were fluorescence-stained and observed under a fluorescence microscope.
In order to determine the mechanism of the alleviating effect of punicalagin on lupus nephritis, the spleen was extracted from 30-week-old mice, the spleen weight and the number of splenocytes were measured, and changes in T cells in the spleen were analyzed by FACS.
After serum was isolated from 30-week-old mice, it was analyzed by the enzyme immunoassay to determine whether punicalagin inhibited or increased cytokines that were expressed by lupus nephritis.
In order to determine the alleviating effect of punicalagin on lupus nephritis, serum was isolated from 30-week-old mice, and the expression of B cell autoantibodies was analyzed by the enzyme immunoassay.
In order to determine the alleviation mechanism of punicalagin against lupus nephritis, the expressions of VCAM-1 and ICAM-1 were analyzed by immunohistochemical staining in renal tissues of 30-week-old mice.

[3] = Weight change of wild-type mice; format: in vivo; conditions: 10 mg/kg intraperitoneally at 2-day intervals
Method: In order to determine the toxicity of punicalagin, the effect of NIH3T3 cells on cell viability and the weight change of 8-week-old wild-type mice were evaluated, and the heart, liver, and lung were extracted from 30-week-old lupus mice and were histologically evaluated by performing hematoxylin-eosin staining.

[4] = tested on: C57BL6N mice with pruritus induced by PAR2-AP; experiment: Pruritus induced by PAR2-AP in mice (number of scratches); format: in vivo; conditions: for number of scratches during the initial 10 minutes: saline group 104; for number of scratches for 40 minutes: PAR2-AP group about 240
Method: In seven-week-old C57BL6N mice, it was confirmed whether punicalagin (PG) has an effect of alleviating pruritus symptoms induced by PAR2 receptor activation by PAR2-AP (activating peptide). In addition, the effects of punicalin (PNC) and ellagic acid (EA), which are metabolites of punicalagin and contained in pomegranate peel in a large amount, were also confirmed.
Specifically, each of 0, 1, 3, and 10 mg/kg punicalagin (n=4) was dissolved in physiological saline and intraperitoneally injected, and after 30 minutes, 100 μg of PAR2-AP was intradermally injected to induce pruritus. As control groups, a group which was intraperitoneally injected with physiological saline only (n=4) and a group which was intraperitoneally injected with 10 mg/kg punicalagin (n=4) were established, and the number of scratches was measured for 40 minutes.

PAR2 = biological target: T1, PAR2 (Homo sapiens, UniProt P55085); experiment: Intracellular calcium increase by house dust mite extract and PAR2-AP in primary cultured conjunctival epithelial cells; format: cell-based; set-up: endogenous in cells; conditions: 10 μM, 10 μg/mL HDM extract, 100 μM PAR2-AP
T1 sequence (P55085 26-397): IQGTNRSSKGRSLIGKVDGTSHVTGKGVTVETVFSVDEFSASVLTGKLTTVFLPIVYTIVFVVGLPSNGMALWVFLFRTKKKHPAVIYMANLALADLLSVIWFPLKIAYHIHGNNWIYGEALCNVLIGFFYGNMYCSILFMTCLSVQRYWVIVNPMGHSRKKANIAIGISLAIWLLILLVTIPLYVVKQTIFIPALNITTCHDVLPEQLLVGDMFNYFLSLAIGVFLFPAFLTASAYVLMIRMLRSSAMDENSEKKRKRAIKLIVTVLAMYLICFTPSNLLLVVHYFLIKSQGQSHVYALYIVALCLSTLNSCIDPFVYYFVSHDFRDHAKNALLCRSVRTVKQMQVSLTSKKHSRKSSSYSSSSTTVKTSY
Method: In order to determine whether punicalagin has an effect of inhibiting cytokine secretion by house dust mites (HDM), after removing a culture medium of conjunctival epithelial cells that were primary cultured and differentiated in a transwell, 300 μL of the Flou4-NW dye mixture was added, and then, it was stabilized for 1 hour such that a Ca^2+ dye was loaded into the cells while blocking the light. Next, punicalagin was pretreated by concentration (0, 10, and 30 μM) for 10 minutes, and then, it was treated with a 10 μg/mL house dust mite extract (HDM extract). Afterwards, the concentration change of calcium ions (Ca^2+) was measured for 3 minutes at 1-second intervals, and 100 μM PAR2-AP was treated to measure whether punicalagin inhibited the concentration change of intracellular calcium ions by PAR2 receptor activation.

[5] = 1, 3 or 10 mg/kg intraperitoneally
[6] = 3 mg/kg, 1 mg/kg, and 0.3 mg/kg
[7] = 3 mg/kg, 1 mg/kg, and 0.3 mg/kg, similar to methylprednisolone

O=CC1OC(=O)c2cc(O)c(O)c(O)c2-c2c(cc(O)c(O)c2O)C(=O)OC1C1OC(=O)c2cc(O)c(O)c(O)c2-c2c(O)c(O)c3oc(=O)c4c(c(O)c(O)c5oc(=O)c2c3c54)-c2c(cc(O)c(O)c2O)C(=O)OCC1O (stereo not drawn) [punicalagin, 1,2,3,11,12,13-hexahydroxy-5,10-dioxo-8-[3,4,5,11,17,18,19,22,23,34,35-undecahydroxy-8,14,26,31-tetraoxo-9,13,25,32-tetraoxaheptacyclo[25.8.0.0^2,7.0^15,20.0^21,30.0^24,29.0^28,33]pentatnaconta-1(35),2,4,6,15,17,19,21,23,27,29,33-dodecaen-10-yl]-5,7,8,10-tetrahydrodibenzo[f,h][1,4]dioxecin-7-carbaldehyde]
colon tissue damage caused by DSS [1, 5]: inhibited
concentration of proinflammatory cytokines increased by DSS [1, 5]: significantly reduced
length of the colon reduced by DSS [1, 5]: recovered
weight loss by DSS ([1]; 1, 3 or 10 mg/kg intraperitoneally once every 48 hours, 2.5% DSS 9 days): inhibited weight loss by DSS in a concentration-dependent manner
kidney weight ([2]; 1 mg/kg): reduced
serum expressions of anti-dsDNA, IgG1, IgG2a, IgG2b, and IgG3 ([2]; 1 mg/kg and 10 mg/kg): decreased
expression of regulatory T cells (Treg) ([2]; 3 mg/kg): significantly increased
number of CD4 T cells in the spleen and expressions of TH1, TH2, and TH17 T cells (FACS) ([2]; 3 mg/kg and 1 mg/kg): significantly reduced
lower proteinuria compared to the nephritis-induced group ([2]; 3 mg/kg and 1 mg/kg, at the level of 7 mg/kg methylprednisolone): 60%
serum creatinine concentration ([2]; 3 mg/kg group): lowest
degree of damage to glomeruli, ducts, and blood vessels (PAS staining) ([2]; 3 mg/kg, 1 mg/kg, and 0.1 mg/kg, 30-week-old mice, similar to methylprednisolone): alleviated
IgG and C3 depositions in kidney tissue (fluorescence) [2, 6]: significantly reduced
expressions of VCAM-1 and ICAM-1 in kidney tissues (immunohistochemical staining) [2, 6]: significantly reduced
serum expressions of IL-10 and TGF-β1 [2, 6]: increased
total number of splenocytes [2, 6]: not increased
serum expressions of IFN-γ, IL-17A, and IL-6 [2, 7]: reduced
weight of the spleen [2, 7]: not increased
mortality from 23 weeks to 30 weeks ([2]; 3, 1 and 0.3 mg/kg intraperitoneally three times a week): none of the subjects died
serum creatinine concentration vs nephritis-induced group ([2]; punicalagin-treated groups (3, 1, 0.3 mg/kg)): lower
weight change in wild-type mice [3]: no weight change
number of scratches during the initial 10 minutes ([4]; 1 mg/kg intraperitoneally, 100 μg PAR2-AP intradermally): about 59 times
number of scratches for 40 minutes ([4]; 1 mg/kg): about 188 times
number of scratches during the initial 10 minutes ([4]; 3 mg/kg intraperitoneally): ~28 times
number of scratches for 40 minutes ([4]; 3 mg/kg): ~103 times
number of scratches during the initial 10 minutes ([4]; 10 mg/kg intraperitoneally): ~14 times
number of scratches for 40 minutes ([4]; 10 mg/kg): ~40 times
concentration increases of intracellular calcium ions by house dust mites and PAR2-AP (PAR2): all inhibited
